From ChEMBL document CHEMBL1201862, “PubChem BioAssay data set” (2004)
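Interpolation was linear, between the two tested concentrations surrounding the appropriate level; five concentrations were tested over 48 hours in 96-well plates. GI50 is the concentration that inhibits growth by half.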 The source made the active and inactive calls. Rule as the data show it: active = GI50 up to about 1.1 µM and inactive = higher.

Key:
Experiment in all cases: DTP human tumour cell line panel, 48 h
786-0 = system: 786-0
A498 = system: A498
ACHN = system: ACHN
COLO 205 = system: COLO 205
HCT-15 = system: HCT-15
HL-60 = system: HL-60
HOP-62 = system: HOP-62
NCI-H226 = system: NCI-H226
NCI-H460 = system: NCI-H460
OVCAR-4 = system: OVCAR-4
OVCAR-8 = system: OVCAR-8
SF-295 = system: SF-295
SF-539 = system: SF-539
SK-MEL-28 = system: SK-MEL-28
SK-MEL-5 = system: SK-MEL-5
SNB-75 = system: SNB-75
UACC-257 = system: UACC-257
UO-31 = system: UO-31
HOP-92 = system: HOP-92

Row | SMILES | GI50 (786-0) | GI50 (A498) | GI50 (ACHN) | GI50 (COLO 205) | GI50 (HCT-15) [µM] | GI50 (HL-60) | GI50 (HOP-62) | GI50 (NCI-H226) | GI50 (NCI-H460) | GI50 (OVCAR-4) | GI50 (OVCAR-8) | GI50 (SF-295) | GI50 (SF-539) | GI50 (SK-MEL-28) | GI50 (SK-MEL-5) | GI50 (SNB-75) | GI50 (UACC-257) | GI50 (UO-31) | GI50 (HOP-92)
1 | CN1CCN(C2=NCCO2)CC1 | > 100 µM (inactive) | > 100 µM (inactive) | > 100 µM (inactive) | > 100 µM (inactive) | > 100 | > 100 µM (inactive) | > 100 µM (inactive) | > 100 µM (inactive) | > 100 µM (inactive) | > 100 µM (inactive) | > 100 µM (inactive) | > 100 µM (inactive) | > 100 µM (inactive) | > 100 µM (inactive) | > 100 µM (inactive) | > 100 µM (inactive) | > 100 µM (inactive) | > 100 µM (inactive) | 
2 | O=c1[nH]c(Cc2ccccc2)nc2c1sc1nc3ccccc3n12 | > 100 µM (inactive) | > 100 µM (inactive) | > 100 µM (inactive) | > 100 µM (inactive) | > 100 | > 100 µM (inactive) |  | > 100 µM (inactive) | > 100 µM (inactive) |  | > 100 µM (inactive) | > 100 µM (inactive) | > 100 µM (inactive) | > 100 µM (inactive) | > 100 µM (inactive) | > 100 µM (inactive) | > 100 µM (inactive) | > 100 µM (inactive) | > 100 µM (inactive)
3 | O=S(=O)(O)c1cc(Cl)c(O)c2ncc(Cl)cc12 | 92 µM (inactive) | > 100 µM (inactive) | 76 µM (inactive) | > 100 µM (inactive) | 41.7 |  | > 100 µM (inactive) | 73.1 µM (inactive) | 55.5 µM (inactive) | 42.7 µM (inactive) | 37.5 µM (inactive) | > 100 µM (inactive) | 50.4 µM (inactive) | > 100 µM (inactive) | 84.3 µM (inactive) | > 100 µM (inactive) | > 100 µM (inactive) | 57 µM (inactive) | 87.1 µM (inactive)
4 | CCN(CC)CCCNc1nnc(C)c2[nH]c3ccccc3c12 | 18.2 µM (inactive) | 17.2 µM (inactive) | 18 µM (inactive) | 2.7 µM (inactive) | > 100 | 3.28 µM (inactive) | 7.31 µM (inactive) |  | 8.13 µM (inactive) |  | 7.93 µM (inactive) | 20.8 µM (inactive) | 2.28 µM (inactive) | 18.7 µM (inactive) | 14.6 µM (inactive) | 18.3 µM (inactive) | 15.1 µM (inactive) | 37.2 µM (inactive) | 6.9 µM (inactive)
5 | CCOC(=O)C1C(O)CC2c3ccccc3-c3ccccc3C21 (centres undefined) | 30.4 µM (inactive) | 20.2 µM (inactive) | 27.3 µM (inactive) | > 100 µM (inactive) | > 100 | > 100 µM (inactive) | 31.2 µM (inactive) | 3.2 µM (inactive) | > 100 µM (inactive) | > 100 µM (inactive) | 21.5 µM (inactive) | 43.7 µM (inactive) |  | > 100 µM (inactive) | 50.5 µM (inactive) | 27.1 µM (inactive) | > 100 µM (inactive) | > 100 µM (inactive) | 20.1 µM (inactive)
6 | CC(O)CC(O)(C(F)(F)F)C(F)(F)F (centres undefined) | > 10 µM (inactive) | > 10 µM (inactive) | > 10 µM (inactive) | > 10 µM (inactive) | > 10 | > 10 µM (inactive) | > 10 µM (inactive) | > 10 µM (inactive) | > 10 µM (inactive) | > 10 µM (inactive) | > 10 µM (inactive) | > 10 µM (inactive) | > 10 µM (inactive) | > 10 µM (inactive) | > 10 µM (inactive) | > 10 µM (inactive) | > 10 µM (inactive) | > 10 µM (inactive) | 
7 | Cc1cc(C)n(CN(Cn2nc(C)cc2C)c2ccccc2)n1 | 21.4 µM (inactive) | > 100 µM (inactive) | 18.4 µM (inactive) | 14.3 µM (inactive) | 19.6 | 2.99 µM (inactive) | 23.7 µM (inactive) |  | 35.1 µM (inactive) | 20.3 µM (inactive) | 20.9 µM (inactive) | 57.9 µM (inactive) | 19.4 µM (inactive) | 19.6 µM (inactive) | 20.4 µM (inactive) |  | 22.3 µM (inactive) | 21.7 µM (inactive) | 33.5 µM (inactive)
8 | CC(=O)OCC1OC(c2nc3ccccc3s2)=CC(OC(C)=O)C1OC(C)=O (centres undefined) | > 100 µM (inactive) | > 100 µM (inactive) | > 100 µM (inactive) | > 100 µM (inactive) |  | 22.3 µM (inactive) | > 100 µM (inactive) | > 100 µM (inactive) | > 100 µM (inactive) | > 100 µM (inactive) | > 100 µM (inactive) | > 100 µM (inactive) | > 100 µM (inactive) | > 100 µM (inactive) | > 100 µM (inactive) | 22.2 µM (inactive) | > 100 µM (inactive) | > 100 µM (inactive) | 
9 | CCC12CCCC(=O)N1C(CO)C(c1ccccc1)O2 (centres undefined) | > 100 µM (inactive) | > 100 µM (inactive) | > 100 µM (inactive) | > 100 µM (inactive) | > 100 |  | > 100 µM (inactive) |  | > 100 µM (inactive) | > 100 µM (inactive) | > 100 µM (inactive) | > 100 µM (inactive) | > 100 µM (inactive) | > 100 µM (inactive) | > 100 µM (inactive) | > 100 µM (inactive) | > 100 µM (inactive) |  | > 100 µM (inactive)
10 | S=c1[nH]c(Cl)cc2nc(Cl)cn12 | 3.72 µM (inactive) | 14.4 µM (inactive) | 8.61 µM (inactive) | 2.83 µM (inactive) | 4.68 |  | 4.84 µM (inactive) | 15 µM (inactive) | 13.6 µM (inactive) | 6.14 µM (inactive) | 4.74 µM (inactive) | 2.88 µM (inactive) | 2.2 µM (inactive) | 8.2 µM (inactive) | 2.95 µM (inactive) | 2.1 µM (inactive) | > 100 µM (inactive) | 4.7 µM (inactive) | 17.5 µM (inactive)
11 | CC(C)c1cc(C(C)C)c(B(c2ccccc2)c2ccccc2)c(C(C)C)c1Br | > 100 µM (inactive) | > 100 µM (inactive) | > 100 µM (inactive) | > 100 µM (inactive) | > 100 | > 100 µM (inactive) | > 100 µM (inactive) | > 100 µM (inactive) | > 100 µM (inactive) | > 100 µM (inactive) | > 100 µM (inactive) | > 100 µM (inactive) | > 100 µM (inactive) | > 100 µM (inactive) | > 100 µM (inactive) |  | > 100 µM (inactive) | > 100 µM (inactive) | > 100 µM (inactive)
12 | Nc1ncnc2oc(-c3cccs3)nc12 | > 100 µM (inactive) | > 100 µM (inactive) | > 100 µM (inactive) | > 100 µM (inactive) | > 100 | > 100 µM (inactive) | > 100 µM (inactive) | > 100 µM (inactive) | > 100 µM (inactive) | > 100 µM (inactive) | > 100 µM (inactive) | > 100 µM (inactive) | > 100 µM (inactive) | > 100 µM (inactive) | > 100 µM (inactive) |  | > 100 µM (inactive) | > 100 µM (inactive) | > 100 µM (inactive)
13 | COC(=O)c1cc(C#N)[nH]c1-c1ccc(C)s1 | 98.2 µM (inactive) | 26.9 µM (inactive) | 41.3 µM (inactive) | 64.3 µM (inactive) | 41.6 |  | 33 µM (inactive) | 37.6 µM (inactive) | 82.2 µM (inactive) | 76.2 µM (inactive) | 59.3 µM (inactive) | 38.8 µM (inactive) | > 100 µM (inactive) | 56.4 µM (inactive) |  | 25.3 µM (inactive) | 64.7 µM (inactive) | 42.9 µM (inactive) | 30.2 µM (inactive)
14 | CN(C)c1cc[n+](-c2nc([N-]C(=O)C(F)(F)F)nc3c2ncn3C2CC(O)C(CO)O2)cc1 (centres undefined) | > 100 µM (inactive) | > 100 µM (inactive) | > 100 µM (inactive) | > 100 µM (inactive) | > 100 | > 100 µM (inactive) | > 100 µM (inactive) | > 100 µM (inactive) | > 100 µM (inactive) | > 100 µM (inactive) | > 100 µM (inactive) | > 100 µM (inactive) | > 100 µM (inactive) | > 100 µM (inactive) | > 100 µM (inactive) | > 100 µM (inactive) |  | > 100 µM (inactive) | 
15 | Cc1ccc(S(=O)(=O)N/N=C2\C=CC3(CC2)C(=O)N(I)c2ccccc23)cc1 (centres undefined) | > 100 µM (inactive) | > 100 µM (inactive) | > 100 µM (inactive) | > 100 µM (inactive) | > 100 |  | > 100 µM (inactive) | > 100 µM (inactive) | 94.4 µM (inactive) | > 100 µM (inactive) | > 100 µM (inactive) | 41.5 µM (inactive) | 11 µM (inactive) | > 100 µM (inactive) | > 100 µM (inactive) | > 100 µM (inactive) | > 100 µM (inactive) | > 100 µM (inactive) | 89.7 µM (inactive)
16 | Cc1cccc(-c2cc(O)c3c(C)ccnc3n2)c1 | 0.564 µM (active) | 0.791 µM (active) | 0.601 µM (active) | 0.208 µM (active) | 0.261 | 0.166 µM (active) | 0.597 µM (active) | 0.495 µM (active) | 0.363 µM (active) | 8.41 µM (inactive) | 0.718 µM (active) | 0.346 µM (active) | 0.456 µM (active) | > 61.1 µM (inactive) | 0.269 µM (active) | 0.36 µM (active) |  |  | 
17 | N=NCC(=O)OC(COCc1ccccc1)COCc1ccccc1 | > 100 µM (inactive) | > 100 µM (inactive) | 25.9 µM (inactive) | 96.4 µM (inactive) | > 100 | 56.6 µM (inactive) | > 100 µM (inactive) | > 100 µM (inactive) | 7.1 µM (inactive) | 69.7 µM (inactive) |  | 95.5 µM (inactive) |  | > 100 µM (inactive) | 49.1 µM (inactive) |  | > 100 µM (inactive) | 21.9 µM (inactive) | 10.2 µM (inactive)
